Results published in PMC3701632, “Kinetic Features of L,D-Transpeptidase Inactivation Critical for β-Lactam Antibacterial Activity” (PLoS ONE, 2013).

How the values were obtained:
[1] = biological target: T1, Ldtfm catalytic domain (LdtfmC442A) (Enterococcus faecium, UniProt Q3Y185, C442A); test: biochemical
T1 construct: gene HMPREF0351_12555

[2] = tested on: CO/N=C(\C(=O)N[C@@H]1C(=O)N2C(C(=O)O)=C(CSc3nc(=O)c(=O)[nH]n3C)CS[C@H]12)c1csc(N)n1; test: purified protein; type: biochemical, Enterococcus faecium; conditions: covalent acylenzyme turnover, saturable step assigned to oxyanion formation, 5 µM enzyme, 100 mM sodium phosphate pH 6.0, 20°C
[3] = tested on: CC1(C)S[C@@H]2[C@H](NC(=O)[C@H](N)c3ccccc3)C(=O)N2[C@H]1C(=O)O; test: purified protein; type: biochemical, Enterococcus faecium; conditions: covalent acylenzyme turnover, saturable step assigned to oxyanion formation, 5 µM enzyme, 100 mM sodium phosphate pH 6.0, 20°C

T1 sequence (Q3Y185 341-466 C442A): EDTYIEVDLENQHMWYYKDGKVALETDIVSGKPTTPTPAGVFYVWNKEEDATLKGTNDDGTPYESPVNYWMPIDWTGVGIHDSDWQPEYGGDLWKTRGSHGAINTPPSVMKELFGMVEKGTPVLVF

## CC1(C)S[C@@H]2[C@H](NC(=O)[C@H](N)c3ccccc3)C(=O)N2[C@H]1C(=O)O [ampicillin]
[1]
  Kd: 79 mM

## CO/N=C(\C(=O)N[C@@H]1C(=O)N2C(C(=O)O)=C(CSc3nc(=O)c(=O)[nH]n3C)CS[C@H]12)c1csc(N)n1 [ceftriaxone]
[1]
  Kd: 44 mM

## C[C@@H](O)[C@H]1C(=O)N2C(C(=O)O)=C(S[C@@H]3CN[C@H](C(=O)Nc4cccc(C(=O)O)c4)C3)[C@H](C)[C@H]12 [ertapenem]
[1]
  Kd: 50 mM

## Ldtfm (Enterococcus faecium DO)
[2]
  kcat: 0.00045 ± 5e-05 s⁻¹
[3]
  K0.5: 370 ± 30 µM
  kcat: 0.003 ± 0.00017 s⁻¹
